Assay results taken from patent US20230041563A1, “N-(1,3,4-OXADIAZOL-2-YL)ARYLCARBOXAMIDES OR SALTS THEREOF, PREPARATION METHODS, HERBICIDAL COMPOSITIONS AND USES THEREOF” (priority 2018, published 2023).

Key:
Assay type in all cases: in vivo
Abutilon theophrasti = experiment: Weeding effect in post-emergence stage (greenhouse pot spray); settings: for Abutilon theophrasti (activity level): Table 3, dose 60 g a.i./ha
Outline: (§1)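 Fresh-weight control rate was assessed 3 weeks after post-emergence spray-tower application at doses of 500–15 g a.i./ha, triplicate. Weeds were treated at the 2–3 leaf stage, 2 weeks post-sowing, using acetone solutions with Tween 80 plus 1.5 L/ha methyl oleate emulsifiable concentrate.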

Digitaria sanguinalis = experiment: as above; settings: for Digitaria sanguinahs (activity level): Table 3, dose 60 g a.i./ha
Outline: as §1

Echinochloa crusgalli = experiment: as above
Outline: as §1

Setaria viridis = experiment: as above; settings: Table 3, dose 60 g a.i./ha
Outline: as §1

Amaranthus retroflexus = experiment: as above
Outline: as §1

Stellaria media = experiment: as above
Outline: as §1

[1] = system: Indica rice (Huanghuazhan); experiment: Safety test of control experiments on rice; settings: Dose 250 g a.i./ha
Source text: (§2) The activity level criteria for plant damage (i.e., growth control rate) are as follows: Comparative Experiments: [table]

[2] = system: Japonica rice (Huaidao No. 5); experiment: Safety test of control experiments on rice; settings: Dose 250 g a.i./ha
Source text: as §2

[3] = system: rice and Echinochloa crusgali; experiment: Herbicide selection index between rice and Echinochloa crusgali; settings: average dose causing 10% phytotoxicity to rice divided by average dose causing 90% control efficiency to Echinochloa crusgali

Structure (SMILES) | Abutilion theophrasti (activity level) (Abutilon theophrasti; Table 2, dose 250 g a.i./ha) | Abutilon theophrasti (activity level) (Abutilon theophrasti) | Digitaria sanguinalis (activity level) (Digitaria sanguinalis; Table 2, dose 250 g a.i./ha) | Digitaria sanguinahs (activity level) (Digitaria sanguinalis) | Echinochloa crusgah (activity level) (Echinochloa crusgalli; Table 2, dose 250 g a.i./ha) | Setaria viridis (activity level) (Setaria viridis) | Amaranthus retroflexus (activity level) (Amaranthus retroflexus; Table 2, dose 250 g a.i./ha) | Stellaria media (activity level) (Stellaria media; Table 2, dose 250 g a.i./ha) | Indica rice (Huanghuazhan) (plant damage level) [1] | Japonica rice (Huaidao No. 5) (plant damage level) [2] | Selection index between rice and Echinochloa crusgali [3] | Abutilion theophrasti (activity level) (Abutilon theophrasti; Table 2, dose 500 g a.i./ha) | Digitaria sanguinalis (activity level) (Digitaria sanguinalis; Table 2, dose 500 g a.i./ha) | Echinochloa crusgah (activity level) (Echinochloa crusgalli; Table 2, dose 500 g a.i./ha) | Amaranthus retroflexus (activity level) (Amaranthus retroflexus; Table 2, dose 500 g a.i./ha) | Stellaria media (activity level) (Stellaria media; Table 2, dose 500 g a.i./ha)
Cc1nnc(NC(=O)c2ccc(C(F)(F)F)c([S+]([O-])CC(C)C)c2F)o1 (racemic) [Compound 1-20] | 5 (Level 5: growth control rate is above 85%) | 5 (Level 5: growth control rate is above 85%) | 5 (Level 5: growth control rate is above 85%) | 5 (Level 5: growth control rate is above 85%) | 5 (Level 5: growth control rate is above 85%) | 5 (Level 5: growth control rate is above 85%) | 5 (Level 5: growth control rate is above 85%) | 5 (Level 5: growth control rate is above 85%) | 0 (Level 0: growth control rate is less than 5%) | 0 (Level 0: growth control rate is less than 5%) | >5 |  |  |  |  | 
Cc1nnc(NC(=O)c2ccc(C(F)(F)F)c([S+]([O-])CCC(F)(F)F)c2F)o1 (racemic) [Compound 1-52] |  | 5 (Level 5: growth control rate is above 85%) |  | 5 (Level 5: growth control rate is above 85%) |  | 5 (Level 5: growth control rate is above 85%) |  |  | 0 (Level 0: growth control rate is less than 5%) | 0 (Level 0: growth control rate is less than 5%) | >5 | 5 (Level 5: growth control rate is above 85%) | 5 (Level 5: growth control rate is above 85%) | 5 (Level 5: growth control rate is above 85%) | 5 (Level 5: growth control rate is above 85%) | 5 (Level 5: growth control rate is above 85%)
CCCCSc1c(C(F)(F)F)ccc(C(=O)Nc2nnc(C)o2)c1F [Compound 1-13] | 5 (Level 5: growth control rate is above 85%) |  | 5 (Level 5: growth control rate is above 85%) |  | 5 (Level 5: growth control rate is above 85%) |  | 5 (Level 5: growth control rate is above 85%) | 5 (Level 5: growth control rate is above 85%) | 0 (Level 0: growth control rate is less than 5%) | 0 (Level 0: growth control rate is less than 5%) | >5 |  |  |  |  | 
Cc1nnc(NC(=O)c2ccc(C(F)(F)F)c([S+]([O-])C3COC3)c2F)o1 (centres unmarked) [Compound 1-82] |  |  |  |  |  |  |  |  | 0 (Level 0: growth control rate is less than 5%) | 0 (Level 0: growth control rate is less than 5%) | >5 | 5 (Level 5: growth control rate is above 85%) | 5 (Level 5: growth control rate is above 85%) | 5 (Level 5: growth control rate is above 85%) | 5 (Level 5: growth control rate is above 85%) | 5 (Level 5: growth control rate is above 85%)
